# How the values were obtained:
# [1] = system: T cell and T cell activation-associated genes in the tumor; test: qPCR gene profiling of tumors, CT26/KSA model; format: in vivo, mice
# Experimental: (§1) Gene profiling of tumors was analyzed using excised tumor tissues placed in RNAlater® RNA stabilizing reagent upon harvest. Total RNA was prepared with an RNeasy® kit (Qiagen) and cDNA was prepared with the Superscript® III kit for qPCR (Life Technologies, Inc.). qPCR reactions were performed on an ABI7500 instrument in a standardized fashion and relative changes in gene expression were analyzed using the ddCt method (efficiency factor 95%). Housekeeping genes used for comparison included ACTB, B2M and HPRT1.
# [2] = system: immune response markers in the tumor; test: immune marker gene expression profiles in B16 tumors; format: in vivo, mice; details: 10 Gy d0 followed by EMD521873, compared to either therapy alone
# Experimental: as §1
# In addition, there was a moderate, but significant increase in certain immune response markers in the tumor as measured by immune marker gene expression profiles with CD25, TNFA, TYROBP, ICOS and CD45 being modulated >4-fold compared to either therapy alone.
# [3] = system: Lewis Lung Carcinoma cells; test: rechallenge of cured mice with Lewis Lung Carcinoma cells; format: in vivo
# Experimental: The ability of irradiation followed by intravenous administration of the exemplary immunocytokine EMD521873 to generate a long lasting immune response was tested by rechallenging cured mice with tumor cells. Mice bearing Lewis Lung Carcinoma tumors were originally treated with either fractionated radiation (3.6 Gy/d, d0-4) plus cisplatin (4 mg/kg, d0), EMD521873 alone (5 mg/kg, d7, 8, 9), or the combination of EMD521873 plus chemoradiation.
# [4] = system: CD8 cell infiltration in tumors; test: immunohistochemical analysis of CD8 cell infiltration in LLC tumors; format: in vivo, mice; details: Experiment LLC-6; combination compared to the monotherapies
# Experimental: In another experiment, LLC tumors were established subcutaneously in both the leg and flank of the same animal. Animals were then treated with either cisplatin (4 mg/kg, d0) plus fractionated radiation given to the leg tumor (3.6 Gy/d, d0-4), i.v. EMD521873 alone (5 mg/kg, d7, 8, 9), or the combination of EMD521873 plus chemoradiation (Experiment LLC-6). Tumor growth and immune response in both the irradiated leg tumor and the non-irradiated flank tumor were monitored. […] CD8 effector cells were increased by approximately 4-fold in the blood with the combination compared to either chemoradiation or EMD521873 alone.
# LLC tumors = test: survival after surgical removal of treated LLC tumor; format: in vivo, mice; details: Experiment LLC-7; EMD521873 5 mg/kg d7, 8, 9 plus chemoradiation; tumor removed day 12 or 13
# Experimental: For the tumor growth assay, cells growing exponentially in culture were injected as a single cell suspension in 100 μl of PBS intramuscularly into the upper legs of the mice. In experiments using a dual tumor model, cells were also implanted in the flanks of the mice. After tumors had become established, treatment was initiated (day 0). In Experiment LLC-7, tumors were implanted in the flank until established. Mice were treated on days 0 to 9, then, on day 12, tumors were excised using survival surgery. Thereafter, animal survival was monitored. In Experiment LLC-14, tumors were implanted subcutaneously in the flank until established. Mice were treated on days 0 to 6 and day 17, and tumor size was measured twice weekly for the duration of the study.
# In another experiment the ability of local irradiation followed by immunocytokine administration to reduce tumor recurrence following surgery was tested (Experiment LLC-7). Mice with subcutaneous LLC tumors were treated with either chemoradiation (cisplatin 4 mg/kg, d0 plus 3.6 Gy/d, d0-4 of fractionated radiation given to the tumor) or EMD521873 (5 mg/kg, d7, 8, 9) plus chemoradiation. The remaining tumor was then surgically removed on day 12 or 13 and survival was monitored. Ten out of 12 mice treated with the combination achieved long term survival compared to 6 out of 10 treated with radiation alone.
# [5] = system: non-small cell lung cancer; test: dose-escalation trial in non-small cell lung cancer; format: in vivo; details: human NSCLC; local irradiation 5×4 Gy then EMD521873 at a dose level below the MTD
# Experimental: An dose-escalation trial is performed using EMD521873 in combination with local irradiation (20 Gy) of primary tumors or metastases in subjects with non-small cell lung cancer stage IIIb with malignant pleural effusion or stage IV with disease control (partial response or stable disease) after application of 4 cycles of platinum-based, first-line chemotherapy.
# Subjects receive local irradiation (5×4 Gy) given over 5 consecutive days, prior to the first treatment cycle with EMD521873. After a 2-day treatment-free interval, intravenous infusions of EMD521873 are given on 3 consecutive days in 3-week cycles.
# In each cycle, patients receive EMD521873 given as a once-daily, 1-h intravenous infusion on 3 consecutive days (days 1-3) followed by an 18-day treatment-free break (days 4-21).
# Dose escalation of EMD521873 is performed in cohorts of 3 subjects at dose levels of 0.15, 0.30, and 0.45 mg/kg. Escalation to the next dose level is based on the number of dose limiting toxicities (DLTs) observed, if any, during the DLT evaluation period (i.e. the 21 days following the day of first infusion of […] in the first cycle). DLTs are defined as any grade ≧3 toxicity assessed as related to trial treatment (EMD521873 and/or radiation). If no DLT occurs in the 3 subjects, the next 3 subjects are recruited at the next highest dose level. […]
substance,measurement,setting,value
dI-NHS76γ2(h)(FN>AQ)-ala-IL2(D20T) [EMD521873],levels of FoxP3 gene expression in the tumor,[1]; radiation followed by EMD521873 (combination),did not increase
same,"CD8, Granzyme B, and IFNγ gene expression increase in the tumor","[1]; radiation followed by EMD521873, compared to either EMD521873 or radiation alone",3.5-4.6 fold
same,"CD25, TNFA, TYROBP, ICOS and CD45 gene expression modulated in the tumor",[2],> 4 fold
same,mice with complete response that did not regrow tumor on rechallenge,"[3]; EMD521873/Chemoradiation treatment, s.c. LLC rechallenge after complete remission >50 days",12 out of 13
same,Immunity to Rechallenge,"[3]; Exp LLC-4, cured C57BL/6 mice rechallenged with LLC cells",0/1
same,mice with complete responses immune to rechallenge with LLC cells,"[3]; LLC-8, LLC-9, combination with chemoradiation",Four out of 4
same,"CD8 cell infiltration enhanced, irradiated lesion",[4],9 fold
same,"CD8 cell infiltration enhanced, non-irradiated lesion",[4],3.5 fold
same,long term survival after surgery,LLC tumors,Ten out of 12
same,rates of tumor response (CT or MRI scan),[5],improved rates of tumor response
